For twelve compounds, inhibition and IC50 results are on record in patent US10759766B2, “Certain chemical entities, compositions, and methods” (NeuPharma, Inc., priority 2011, dated 2020).

One experiment deals with BRAF V600E (Homo sapiens (Human), UniProt P15056, V600E). The experiment can be described thus: Z′-LYTE kinase inhibition assay (Invitrogen), BRAF V600E. The experiment is classed as biochemical. The conditions noted are these: 1 μM compound, Z′-LYTE method; read-out: % inhibition at 1 μM against BRAF V600E. On the procedure:
(§1) Inhibitory activities Inhibitory activities of compounds against BRAF, and BRAF V600E were measured by Invitrogen using Z′-LYTE® Method as briefly described in the following. 4× Test compounds are dissolved in 1% DMSO. […] ATP solutions are diluted to a 4×ATP working concentration in Kinase Buffer (50 mM HEPES pH 7.5, 0.01% BRIJ-35, 10 mM MgCl2, 1 mM EGTA). Reaction started by 30-second shaking of mixture consisting of 2.5 μL 4× test compound, […] and 2.5 μL 4×ATP Solution on Bar-coded Corning, low volume NBS, black 384-well plate (Corning Cat. #3676). Then the mixture was incubated for 60-minute at room temperature for the kinase reaction, followed by addition of 5 μL of a 1:1024 dilution of development reagent A and 30-second plate shake. The mixture was then incubated for another 60-minute at room temperature for development reaction. Fluorescence was read by plate reader. IC50 was calculated by plotting the concentration of compound vs the percentage of inhibition in treated wells using GraphPad Prism 5.
The scale utilized in Table 3 is as follows: +++ less than 100 nM; and ++ greater than 100 nM.

In another experiment the target is KDR (VEGFR2) (Homo sapiens (Human), UniProt P35968). Description: Z′-LYTE kinase inhibition assay (Invitrogen), KDR. The conditions noted are these: Z′-LYTE method; for inhibition at 1 µM: 1 μM compound, read-out: % inhibition at 1 μM against KDR; for IC50: read-out: IC50 against KDR. It is filed as biochemical. The procedure: as §1
Sequence of KDR (VEGFR2) (P35968 20-1356): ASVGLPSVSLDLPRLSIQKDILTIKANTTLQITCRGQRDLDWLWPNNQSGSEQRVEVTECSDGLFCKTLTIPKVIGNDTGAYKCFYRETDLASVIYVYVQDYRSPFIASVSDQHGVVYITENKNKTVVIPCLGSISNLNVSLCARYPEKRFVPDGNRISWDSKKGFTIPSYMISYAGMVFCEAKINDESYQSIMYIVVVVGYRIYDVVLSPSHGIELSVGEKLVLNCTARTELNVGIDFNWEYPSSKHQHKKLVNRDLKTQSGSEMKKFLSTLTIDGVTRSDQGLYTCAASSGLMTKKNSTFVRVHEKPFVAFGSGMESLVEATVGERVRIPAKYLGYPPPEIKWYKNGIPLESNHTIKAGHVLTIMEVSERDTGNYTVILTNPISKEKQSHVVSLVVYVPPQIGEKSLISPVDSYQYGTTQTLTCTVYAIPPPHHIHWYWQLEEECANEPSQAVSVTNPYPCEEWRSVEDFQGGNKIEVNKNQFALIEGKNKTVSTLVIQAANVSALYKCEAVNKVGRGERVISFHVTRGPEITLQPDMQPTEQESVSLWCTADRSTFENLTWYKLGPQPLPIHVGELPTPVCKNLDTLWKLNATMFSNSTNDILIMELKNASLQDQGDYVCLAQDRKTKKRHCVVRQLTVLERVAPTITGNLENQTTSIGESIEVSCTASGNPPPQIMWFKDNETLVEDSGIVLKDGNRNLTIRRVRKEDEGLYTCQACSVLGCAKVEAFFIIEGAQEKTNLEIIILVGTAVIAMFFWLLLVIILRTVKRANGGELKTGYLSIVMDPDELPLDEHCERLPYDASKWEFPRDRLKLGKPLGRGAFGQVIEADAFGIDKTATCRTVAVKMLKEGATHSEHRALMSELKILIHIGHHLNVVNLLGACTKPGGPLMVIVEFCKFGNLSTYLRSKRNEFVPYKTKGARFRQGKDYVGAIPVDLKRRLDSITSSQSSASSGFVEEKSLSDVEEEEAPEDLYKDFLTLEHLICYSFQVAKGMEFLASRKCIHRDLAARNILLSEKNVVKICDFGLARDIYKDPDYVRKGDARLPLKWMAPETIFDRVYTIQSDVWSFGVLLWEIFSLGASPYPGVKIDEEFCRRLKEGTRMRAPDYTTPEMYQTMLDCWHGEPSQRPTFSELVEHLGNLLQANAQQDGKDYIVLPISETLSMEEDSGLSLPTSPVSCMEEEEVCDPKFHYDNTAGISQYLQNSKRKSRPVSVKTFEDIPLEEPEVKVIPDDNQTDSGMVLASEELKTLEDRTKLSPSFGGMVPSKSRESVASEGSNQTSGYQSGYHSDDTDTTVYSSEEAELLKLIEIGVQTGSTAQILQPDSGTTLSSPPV
Inhibitory activities of compounds against KDR (VEGFR2) were also measured by Invitrogen using Z′-LYTE® Method as described above with the following modification. The 2× KDR (VEGFR2)/Tyr 01 mixture is prepared in 50 mM HEPES pH 7.5, 0.01% BRIJ-35, 10 mM MgCl2, 1 mM EGTA. The final 10 μL Kinase Reaction consists of 0.5-11.7 ng KDR (VEGFR2) and 2 μM Tyr 01 in 50 mM HEPES pH 7.5, 0.01% BRIJ-35, 10 mM MgCl2, 1 mM EGTA. After the 1 hour Kinase Reaction incubation, 5 μL of a 1:256 dilution of Development Reagent B is added.
The scale utilized in Table 5 is as follows: +++ less than 100 nM; and ++ greater than 100 nM

Another experiment concerns A549 cells. The experiment can be described thus: Inhibition of cancer cell growth, MTT assay, A549. The experiment is classed as cell-based. To be noted: Homo sapiens, A549, 72 h exposure. On the procedure:
Inhibition of cell growth by compounds was measured using MTT assay (Mosmann, T., Journal of Immunological Methods, 1983, 65, 55-63). Tumor cell lines were purchased from ATCC (American Type Culture Collection, Manassas, Va.). All cell lines were maintained in RPMI 1640 (Hyclone) supplemented with 10% fetal bovine serum (FBS, Hyclone), glutamine (2 mM, Hyclone), and antibiotics (penicillin 100 U/mL and streptomycin 50 μg/mL) at 37° C. in a humidified atmosphere of 5% CO2 in air. Taxol (as a positive control, Sigma) and compounds were dissolved in DMSO (Sigma), and the final concentration of DMSO in the medium was 1%. Tumor cells were plated in 96-well plates at densities of about 4000 cells/well of a 96-well plate and allowed to adhere/grow for 24 h. They were then treated with various concentrations of drug for 72 h. 3-(4,5-Dimethylthiazol-2-yl)-2,5-diphenyltetrazolium bromide (MTT, Sigma) was used to determine the number of viable cells at the time of compound addition and the number of cells remaining after 72 h compound exposure. The number of cells remaining after 72 h was compared to the number of viable cells at the time of compound addition by measuring the absorbance at 570 nm, allowing for the calculation of growth inhibition.
All concentrations of compounds were tested in triplicate and controls were averaged over 4 wells. IC50 was calculated by plotting the concentration of compound vs the percentage of inhibition in treated wells using GraphPad Prism 5. […] The scale utilized in Table 6 is as follows: +++ less than 1000 nM; ++ between 1000 nM and 5000 nM; and + greater than 5000 nM. The scale utilized in Table 7 is as follows: +++ less than 2000 nM; ++ between 2000 nM and 5000 nM; and + greater than 5000 nM.

Structures are written as SMILES. A value given as a limit tells only on which side of the number the result lay.

Sequence of BRAF V600E (P15056 whole entry V600E): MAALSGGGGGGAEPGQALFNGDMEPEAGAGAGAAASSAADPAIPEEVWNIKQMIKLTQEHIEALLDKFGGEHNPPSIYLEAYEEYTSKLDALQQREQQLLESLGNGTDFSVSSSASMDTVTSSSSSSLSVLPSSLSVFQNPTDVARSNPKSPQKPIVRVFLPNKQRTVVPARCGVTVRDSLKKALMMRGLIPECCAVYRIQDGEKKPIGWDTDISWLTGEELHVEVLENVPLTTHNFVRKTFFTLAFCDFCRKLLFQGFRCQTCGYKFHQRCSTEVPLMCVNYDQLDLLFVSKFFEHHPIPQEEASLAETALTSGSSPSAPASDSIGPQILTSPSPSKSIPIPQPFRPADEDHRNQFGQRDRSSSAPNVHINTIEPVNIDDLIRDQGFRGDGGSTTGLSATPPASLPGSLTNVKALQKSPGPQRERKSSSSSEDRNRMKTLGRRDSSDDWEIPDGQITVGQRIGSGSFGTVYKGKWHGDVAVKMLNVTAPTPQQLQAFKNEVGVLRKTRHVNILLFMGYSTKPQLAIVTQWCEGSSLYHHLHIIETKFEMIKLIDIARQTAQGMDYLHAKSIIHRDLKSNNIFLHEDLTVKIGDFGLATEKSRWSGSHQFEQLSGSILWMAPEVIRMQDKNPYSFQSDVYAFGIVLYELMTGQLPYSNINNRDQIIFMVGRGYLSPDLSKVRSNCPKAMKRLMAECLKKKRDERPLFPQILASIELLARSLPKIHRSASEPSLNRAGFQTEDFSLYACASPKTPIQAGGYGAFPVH

As for `O=C(Nc1cc(F)cc(F)c1)Nc1cc(F)c(F)c(C(=O)c2ccc3ncc(N4CCOCC4)nc3c2)c1` [Compound C097], the inhibition at 1 µM at BRAF V600E was over 89%; on KDR (VEGFR2), under 70%. In the experiment with A549 cells, this compound returned an IC50 of 2 to 5 µM.
As for `O=C(Nc1ccc(F)c(F)c1)Nc1cc(F)c(F)c(C(=O)c2ccc3ncc(N4CCNCC4)nc3c2)c1` [Compound C103, 1-(3,4-difluoro-5-(3-(piperazin-1-yl)quinoxaline-6-carbonyl)phenyl)-3-(3,4-difluorophenyl)urea], the IC50 in the experiment with A549 cells lay in the range of 2 to 5 µM.
As to `O=C(Nc1ccc(F)cc1)Nc1cc(F)c(F)c(C(=O)c2ccc3ncc(N4CCOCC4)nc3c2)c1` [Compound C095, 1-(3,4-difluoro-5-(3-morpholinoquinoxaline-6-carbonyl)phenyl)-3-(4-fluorophenyl)urea], the inhibition at 1 µM on BRAF V600E was over 89%; at KDR (VEGFR2), 70 to 89%. In addition, the IC50 with A549 cells was over 5 µM.
Take `O=C(Nc1ccc(F)c(F)c1)Nc1ccc(F)c(C(=O)c2ccc3ncc(N4CCNCC4)nc3c2)c1` [Compound C102, 1-(3,4-difluorophenyl)-3-(4-fluoro-3-(3-(piperazin-1-yl)quinoxaline-6-carbonyl)phenyl)urea]: the inhibition at 1 µM on BRAF V600E and on KDR (VEGFR2) was over 89% each time. For the same compound, the IC50 on KDR (VEGFR2) is under 0.1 µM; in the experiment with A549 cells it was 2 to 5 µM.
Consider `O=C(Nc1cc(F)cc(F)c1)Nc1ccc(F)c(C(=O)c2ccc3ncc(N4CCNCC4)nc3c2)c1` [Compound C101, 1-(3,5-difluorophenyl)-3-(4-fluoro-3-(3-(piperazin-1-yl)quinoxaline-6-carbonyl)phenyl)urea], for which the inhibition at 1 µM is over 89% on BRAF V600E and 70 to 89% at KDR (VEGFR2). The concentration for half-maximal inhibition (IC50) in the experiment with A549 cells was 2 to 5 µM.
In the experiment with A549 cells, `O=C(Nc1cc(F)cc(F)c1)Nc1cc(F)c(F)c(C(=O)c2ccc3ncc(N4CCNCC4)nc3c2)c1` [Compound C104, 1-(3,4-difluoro-5-(3-(piperazin-1-yl)quinoxaline-6-carbonyl)phenyl)-3-(3,5-difluorophenyl)urea] had an IC50 of over 5 µM.
On to `O=C(Nc1cc(F)cc(F)c1)Nc1ccc(F)c(C(=O)c2ccc3ncc(N4CCOCC4)nc3c2)c1` [Compound C094, 1-(3,5-difluorophenyl)-3-(4-fluoro-3-(3-morphlinoquinoxaline-6-carbonyl)phenyl)urea], for which the inhibition at 1 µM at BRAF V600E was over 89%; on KDR (VEGFR2), under 70%. The compound also yielded an IC50 in the experiment with A549 cells of over 5 µM.
For `O=C(Nc1ccc(F)cc1)Nc1cc(F)c(F)c(C(=O)c2ccc3ncc(N4CCNCC4)nc3c2)c1` [Compound C099, 1-(3,4-difluoro-5-(3-(piperazin-1-yl)quinoxaline-6-carbonyl)phenyl)-3-(4-fluorophenyl)urea], the figures for the inhibition at 1 µM at BRAF V600E and on KDR (VEGFR2) were over 89% and 70 to 89%, respectively. For the same compound, the figures for the IC50 on KDR (VEGFR2) and in the experiment with A549 cells were over 0.1 µM and under 2 µM, respectively.
As for `O=C(Nc1cccc(F)c1)Nc1cc(F)c(F)c(C(=O)c2ccc3ncc(N4CCNCC4)nc3c2)c1` [Compound C098], the inhibition at 1 µM at BRAF V600E was over 89%; at KDR (VEGFR2), 70 to 89%. Besides, the half-maximal inhibitory concentration (IC50) with A549 cells lay within 2 to 5 µM.
The like results for `O=C(Nc1ccc(F)c(F)c1)Nc1cc(F)c(F)c(C(=O)c2ccc3ncc(N4CCOCC4)nc3c2)c1` [Compound C096] were, in that order, over 89%, under 70% and over 5 µM.
Regarding `O=C(Nc1ccc(F)c(C(=O)c2ccc3nccnc3c2)c1F)c1cccc(C(F)(F)F)c1` [Compound C114, N-(2,4-difluoro-3-(quinoxaline-6-carbonyl)phenyl)-3-(trifluoromethyl)benzamide], the inhibition at 1 µM on BRAF V600E and on KDR (VEGFR2) was 70 to 89% each time. In the experiment on A549 cells, the 50% inhibitory concentration (IC50) is over 5 µM.
For the compound `O=C(Nc1cc(F)cc(F)c1)Nc1cc(F)cc(C(=O)c2ccc3ncc(N4CCOCC4)nc3c2)c1` [Compound C093], the inhibition at 1 µM at BRAF V600E is over 89%; at KDR (VEGFR2), under 70%. In the experiment on A549 cells, this compound returned a 50% inhibitory concentration (IC50) of 2 to 5 µM.
